{
  "source": "patent US20260256792A1",
  "about": "“TREATMENT OF CHRONIC SPONTANEOUS URTICARIA BY ADMINISTERING (R)-2-[3-[4-AMINO-3-(2-FLUORO-4-PHENOXY-PHENYL)PYRAZOLO[3,4-D]PYRIMIDIN-1-YL]PIPERIDINE-1-CARBONYL]-4-METHYL-4-[4-(OXETAN-3-YL)PIPERAZIN-1-YL]PENT-2-ENENITRILE” (priority 2023, published 2026)",
  "test_system": "moderate-to-severe chronic spontaneous urticaria (CSU)",
  "test": "Phase 2 CSU study: urticaria activity score over 7 days (UAS7)",
  "type": "in vivo, human",
  "details": "Omalizumab-naïve, 400 mg QPM",
  "excerpt": "The study comprises a 12 week, randomized, double-blind, placebo-controlled, multi-center, dose-ranging efficacy and safety phase, followed by a 40 week open label extension (OLE) phase (see FIG. 1). The study consists of three phases and an optional OLE phase. […] Clinically, CSU is characterized by the spontaneous and recurrent appearance of pruritic hives. The proposed primary endpoints were the UAS7 at Week 12 in EU and EU reference countries and the ISS7 in the US. Regardless of where a participant was from, all assessments were the same. The UAS7 score is a composite score containing both the HSS7 and the ISS7. This allowed a global assessment of the two key components of urticaria: hives and itch. […] The UAS is a validated PRO measure. […] The daily UAS scores range from 0 to 6 point/day. […] Patients were to complete the UAS using the e-diary. […] The following secondary endpoints were to be analyzed using the same approach as for the primary endpoint: • Change from baseline in UAS7 at Week 4 • Change from baseline in UAS7 at Week 12 (for US and US reference countries) • Change from baseline in ISS7 at Week 12 (except US and US reference countries) • Change from baseline in HSS7 at Week 12 The following responder secondary endpoints were to be analyzed using the Cochran-Mantel-Haenszel test adjusted by region: • Proportion of participants with UAS7<6 at Week 12 • Proportion of participants with UAS7=0 at Week 12 Participants who received selected prohibited medications and/or rescue medications were to be considered as non-responders for time points after the medication usage. For other participants, all available data including those collected during the off-treatment period were to be used to determine the responder/non-responder status. Missing data were to be considered as non-responders.",
  "data": [
    {"compound": "CC(C)(C=C(C#N)C(=O)N1CCC[C@@H](n2nc(-c3ccc(Oc4ccccc4)cc3F)c3c(N)ncnc32)C1)N1CCN(C2COC2)CC1", "note": "[rilzabrutinib, (R)-2-[3-[4-amino-3-(2-fluoro-4-phenoxy-phenyl)pyrazolo[3,4-d]pyrimidin-1-yl]piperidine-1-carbonyl]-4-methyl-4-[4-(oxetan-3-yl)piperazin-1-yl]pent-2-enenitrile]", "values": [
      {"measurement": "Non-responder n (%), UAS7 ≤6", "setting": "Week 1", "value": "35 (94.6) n (%)"},
      {"measurement": "OR for rilzabrutinib vs. placebo, UAS7 = 0", "setting": "Week 1", "value": "0.000 (NE,"},
      {"measurement": "RRD (%) for rilzabrutinib vs. placebo, UAS7 = 0", "setting": "Week 1", "value": "−2.9", "unit": "%"},
      {"measurement": "RRD (%) for rilzabrutinib vs. placebo, UAS7 ≤6", "setting": "Week 1", "value": "−0.0", "unit": "%"},
      {"measurement": "Responder n (%), UAS7 = 0", "setting": "Week 1", "value": "0 n (%)"},
      {"measurement": "Responder n (%), UAS7 ≤6", "setting": "Week 1", "value": "2 (5.4) n (%)"},
      {"measurement": "Imputed non-responder n (%), UAS7 = 0", "setting": "Week 2", "value": "0 n (%)"},
      {"measurement": "Imputed non-responder n (%), UAS7 ≤6", "setting": "Week 2", "value": "0 n (%)"},
      {"measurement": "Non-responder n (%), UAS7 = 0", "setting": "Week 2", "value": "37 (100) n (%)"},
      {"measurement": "Non-responder n (%), UAS7 ≤6", "setting": "Week 2", "value": "36 (97.3) n (%)"},
      {"measurement": "OR for rilzabrutinib vs. placebo, UAS7 = 0", "setting": "Week 2", "value": "0.000 (NE,"},
      {"measurement": "OR for rilzabrutinib vs. placebo, UAS7 ≤6", "setting": "Week 2", "value": 0.489},
      {"measurement": "RRD (%) for rilzabrutinib vs. placebo, UAS7 = 0", "setting": "Week 2", "value": "−2.9", "unit": "%"},
      {"measurement": "RRD (%) for rilzabrutinib vs. placebo, UAS7 ≤6", "setting": "Week 2", "value": "−2.7", "unit": "%"},
      {"measurement": "Responder n (%), UAS7 = 0", "setting": "Week 2", "value": "0 n (%)"},
      {"measurement": "Responder n (%), UAS7 ≤6", "setting": "Week 2", "value": "1 (2.7) n (%)"},
      {"measurement": "Imputed non-responder n (%), UAS7 = 0", "setting": "Week 3", "value": "0 n (%)"},
      {"measurement": "Imputed non-responder n (%), UAS7 ≤6", "setting": "Week 3", "value": "0 n (%)"},
      {"measurement": "Non-responder n (%), UAS7 = 0", "setting": "Week 3", "value": "37 (100) n (%)"},
      {"measurement": "Non-responder n (%), UAS7 ≤6", "setting": "Week 3", "value": "35 (94.6) n (%)"},
      {"measurement": "OR for rilzabrutinib vs. placebo, UAS7 = 0", "setting": "Week 3", "value": "0.000 (NE,"},
      {"measurement": "OR for rilzabrutinib vs. placebo, UAS7 ≤6", "setting": "Week 3", "value": 0.666},
      {"measurement": "RRD (%) for rilzabrutinib vs. placebo, UAS7 = 0", "setting": "Week 3", "value": "−2.9", "unit": "%"},
      {"measurement": "RRD (%) for rilzabrutinib vs. placebo, UAS7 ≤6", "setting": "Week 3", "value": "−2.5", "unit": "%"},
      {"measurement": "Responder n (%), UAS7 = 0", "setting": "Week 3", "value": "0 n (%)"},
      {"measurement": "Responder n (%), UAS7 ≤6", "setting": "Week 3", "value": "2 (5.4) n (%)"},
      {"measurement": "Imputed non-responder n (%), UAS7 = 0", "setting": "Week 4", "value": "1 (2.7) n (%)"},
      {"measurement": "Imputed non-responder n (%), UAS7 ≤6", "setting": "Week 4", "value": "1 (2.7) n (%)"},
      {"measurement": "Non-responder n (%), UAS7 = 0", "setting": "Week 4", "value": "37 (100) n (%)"},
      {"measurement": "Non-responder n (%), UAS7 ≤6", "setting": "Week 4", "value": "35 (94.6) n (%)"},
      {"measurement": "OR for rilzabrutinib vs. placebo, UAS7 = 0", "setting": "Week 4", "value": "0.000 (NE,"},
      {"measurement": "OR for rilzabrutinib vs. placebo, UAS7 ≤6", "setting": "Week 4", "value": 0.486},
      {"measurement": "RRD (%) for rilzabrutinib vs. placebo, UAS7 = 0", "setting": "Week 4", "value": "−5.3", "unit": "%"},
      {"measurement": "RRD (%) for rilzabrutinib vs. placebo, UAS7 ≤6", "setting": "Week 4", "value": "−5.0", "unit": "%"},
      {"measurement": "Responder n (%), UAS7 = 0", "setting": "Week 4", "value": "0 n (%)"},
      {"measurement": "Responder n (%), UAS7 ≤6", "setting": "Week 4", "value": "2 (5.4) n (%)"},
      {"measurement": "Imputed non-responder n (%), UAS7 = 0", "setting": "Week 5", "value": "2 (5.4) n (%)"},
      {"measurement": "Imputed non-responder n (%), UAS7 ≤6", "setting": "Week 5", "value": "2 (5.4) n (%)"},
      {"measurement": "Non-responder n (%), UAS7 = 0", "setting": "Week 5", "value": "36 (97.3) n (%)"},
      {"measurement": "Non-responder n (%), UAS7 ≤6", "setting": "Week 5", "value": "35 (94.6) n (%)"},
      {"measurement": "OR for rilzabrutinib vs. placebo, UAS7 = 0", "setting": "Week 5", "value": 0.923},
      {"measurement": "OR for rilzabrutinib vs. placebo, UAS7 ≤6", "setting": "Week 5", "value": 0.986},
      {"measurement": "RRD (%) for rilzabrutinib vs. placebo, UAS7 = 0", "setting": "Week 5", "value": "−0.2", "unit": "%"},
      {"measurement": "RRD (%) for rilzabrutinib vs. placebo, UAS7 ≤6", "setting": "Week 5", "value": "−0.1", "unit": "%"},
      {"measurement": "Responder n (%), UAS7 = 0", "setting": "Week 5", "value": "1 (2.7) n (%)"},
      {"measurement": "Responder n (%), UAS7 ≤6", "setting": "Week 5", "value": "2 (5.4) n (%)"},
      {"measurement": "Imputed non-responder n (%), UAS7 = 0", "setting": "Week 6", "value": "4 (10.8) n (%)"},
      {"measurement": "Imputed non-responder n (%), UAS7 ≤6", "setting": "Week 6", "value": "4 (10.8) n (%)"},
      {"measurement": "Non-responder n (%), UAS7 = 0", "setting": "Week 6", "value": "36 (97.3) n (%)"},
      {"measurement": "Non-responder n (%), UAS7 ≤6", "setting": "Week 6", "value": "34 (91.9) n (%)"},
      {"measurement": "OR for rilzabrutinib vs. placebo, UAS7 = 0", "setting": "Week 6", "value": 0.923},
      {"measurement": "RRD (%) for rilzabrutinib vs. placebo, UAS7 = 0", "setting": "Week 6", "value": "−0.2", "unit": "%"},
      {"measurement": "RRD (%) for rilzabrutinib vs. placebo, UAS7 ≤6", "setting": "Week 6", "value": "−7.8", "unit": "%"},
      {"measurement": "Responder n (%), UAS7 = 0", "setting": "Week 6", "value": "1 (2.7) n (%)"},
      {"measurement": "Responder n (%), UAS7 ≤6", "setting": "Week 6", "value": "3 (8.1) n (%)"},
      {"measurement": "Imputed non-responder n (%), UAS7 = 0", "setting": "Week 7", "value": "6 (16.2) n (%)"},
      {"measurement": "Imputed non-responder n (%), UAS7 ≤6", "setting": "Week 7", "value": "6 (16.2) n (%)"},
      {"measurement": "Non-responder n (%), UAS7 = 0", "setting": "Week 7", "value": "36 (97.3) n (%)"},
      {"measurement": "Non-responder n (%), UAS7 ≤6", "setting": "Week 7", "value": "36 (97.3) n (%)"},
      {"measurement": "OR for rilzabrutinib vs. placebo, UAS7 = 0", "setting": "Week 7", "value": 1.061},
      {"measurement": "OR for rilzabrutinib vs. placebo, UAS7 ≤6", "setting": "Week 7", "value": 0.249},
      {"measurement": "RRD (%) for rilzabrutinib vs. placebo, UAS7 = 0", "setting": "Week 7", "value": 0.2, "unit": "%"},
      {"measurement": "RRD (%) for rilzabrutinib vs. placebo, UAS7 ≤6", "setting": "Week 7", "value": "−8.3", "unit": "%"},
      {"measurement": "Responder n (%), UAS7 = 0", "setting": "Week 7", "value": "1 (2.7) n (%)"},
      {"measurement": "Responder n (%), UAS7 ≤6", "setting": "Week 7", "value": "1 (2.7) n (%)"},
      {"measurement": "Imputed non-responder n (%), UAS7 = 0", "setting": "Week 8", "value": "7 (18.9) n (%)"}
    ]}
  ]
}
